This experiment deals with male hamster auricular skin tissue sections containing sebaceous glands. Briefly: Sebum production inhibitory effect on hamster auricular skin tissue sections (radiolabeled acetate incorporation, method of Hall et al.). It is filed as cell-based. The note with it: cultured 3 hours in Krebs-Ringer phosphate buffer, vs left auricula control. The protocol: Compounds of the present invention (Compound Nos. 1-10) were evaluated for sebum production inhibitory effect on hamster auricular skin tissue sections containing sebaceous glands.
The method of Hall et al. (Hall, D. W. R., Van den Hoven, W. E., Noordzij-Kamermans, N. J., Jaitly, K. D., Arch. Dermatol. Res., 275, 1 (1983)) was followed. Namely, male hamster auricular skin tissue sections (3 mm in diameter) containing sebaceous glands were cultured for 3 hours in Krebs-Ringer phosphate buffer containing radioactively labeled sodium acetate, and then tissues were hydrolyzed and extracted with hexane. The radioactively labeled fat levels in hexane were measured in a liquid scintillation counter to determine fat production inhibition levels in sebaceous glands. Skin tissues isolated from the right auricula were cultured in Krebs-Ringer phosphate buffer containing 0.01% or 0.05% of compounds of the present invention (Compound Nos. 1-10) (compound systems), while skin tissues from the left auricula of the same hamster were cultured in Krebs-Ringer phosphate buffer containing no compounds of the present invention (control system). The sebum production inhibition percentage was calculated by the equation below from the test data obtained. Sebum production inhibition (%)=[(Sebum production level in control system)−(Sebum production level in each compound system)]/(Sebum production level in control system)×100

Setting [1] is: Concentration of compound in the medium 0.01%.
[2] abbreviates: Concentration of compound in the medium 0.05%.

Consider `CC(=O)N[C@@H]1[C@@H](O[C@@H]2O[C@H](C(=O)O)[C@@H](O[C@@H]3O[C@H](CO)[C@@H](O)[C@H](O[C@@H]4OC(C(=O)O)=C[C@H](O)[C@H]4O)[C@H]3NC(C)=O)[C@H](O)[C@H]2O)[C@H](O)[C@@H](CO)O[C@H]1O` [compound 1, 4-deoxy-α-L-threo-hexa-4-enepyranuronosyl-(1→3)-O-2-acetamide-2-deoxy-β-D-glucopyranosyl-(1→4)-3-O-β-D-glucopyranuronosyl-(1→3)-O-2-acetamide-2-deoxy-β-D-glucopyranose], for which the “Sebum production inhibition (%)” value was determined as 15.7% under setting [1] and 17.8% under setting [2].
The matching figures for `CC(=O)N[C@@H]1[C@@H](O[C@@H]2O[C@H](C(=O)O)[C@@H](O[C@@H]3O[C@H](CO)[C@@H](O)[C@H](O[C@@H]4O[C@H](C(=O)O)[C@@H](O[C@@H]5O[C@H](CO)[C@@H](O)[C@H](O[C@@H]6OC(C(=O)O)=C[C@H](O)[C@H]6O)[C@H]5NC(C)=O)[C@H](O)[C@H]4O)[C@H]3NC(C)=O)[C@H](O)[C@H]2O)[C@H](O)[C@@H](CO)O[C@H]1O` [compound 2, 4-deoxy-α-L-threo-hexa-4-enepyranuronosyl-(1→3)-O-2-acetamide-2-deoxy-β-D-glucopyranosyl-(1→4)-3-O-β-D-glucopyranuronosyl-(1→3)-O-2-acetamide-2-deoxy-β-D-glucopyranosyl-(1→4)-3-O-β-D-glucopyranuronosyl-(1→3)-O-2-acetamide-2-deoxy-β-D-glucopyranose]: 28.6% and 50.1%.
On to `CC(=O)N[C@@H]1[C@@H](O[C@@H]2O[C@H](C(=O)O)[C@@H](O[C@@H]3O[C@H](CO)[C@@H](O)[C@H](O[C@@H]4O[C@H](C(=O)O)[C@@H](O[C@@H]5O[C@H](CO)[C@@H](O)[C@H](O[C@@H]6O[C@H](C(=O)O)[C@@H](O[C@@H]7O[C@H](CO)[C@@H](O)[C@H](O[C@@H]8OC(C(=O)O)=C[C@H](O)[C@H]8O)[C@H]7NC(C)=O)[C@H](O)[C@H]6O)[C@H]5NC(C)=O)[C@H](O)[C@H]4O)[C@H]3NC(C)=O)[C@H](O)[C@H]2O)[C@H](O)[C@@H](CO)O[C@H]1O` [compound 3, 4-deoxy-α-L-threo-hexa-4-enepyranuronosyl-(1→3)-O-2-acetamide-2-deoxy-β-D-glucopyranosyl-(1→4)-3-O-β-D-glucopyranuronosyl-(1→3)-O-2-acetamide-2-deoxy-β-D-glucopyranosyl-(1→4)-3-O-β-D-glucopyranuronosyl-(1→3)-O-2-acetamide-2-deoxy-β-D-glucopyranosyl-(1→4)-3-O-β-D-glucopyranuronosyl-(1→3)-O-2-acetamide-2-deoxy-β-D-glucopyranose], for which the “Sebum production inhibition (%)” value under setting [1] stood at 48.5% and the “Sebum production inhibition (%)” value under setting [2] is listed as 47.7%.
As to `CC(=O)N[C@@H]1[C@@H](O[C@@H]2O[C@H](C(=O)O)[C@@H](O[C@@H]3O[C@H](CO)[C@@H](O)[C@H](O[C@@H]4O[C@H](C(=O)O)[C@@H](O[C@@H]5O[C@H](CO)[C@@H](O)[C@H](O[C@@H]6O[C@H](C(=O)O)[C@@H](O[C@@H]7O[C@H](CO)[C@@H](O)[C@H](O[C@@H]8O[C@H](C(=O)O)[C@@H](O[C@@H]9O[C@H](CO)[C@@H](O)[C@H](O[C@@H]%10OC(C(=O)O)=C[C@H](O)[C@H]%10O)[C@H]9NC(C)=O)[C@H](O)[C@H]8O)[C@H]7NC(C)=O)[C@H](O)[C@H]6O)[C@H]5NC(C)=O)[C@H](O)[C@H]4O)[C@H]3NC(C)=O)[C@H](O)[C@H]2O)[C@H](O)[C@@H](CO)O[C@H]1O` [compound 4], the “Sebum production inhibition (%)” value is, setting by setting: under setting [1], 53.4%; under setting [2], 51.0%.
On to `CC(=O)N[C@H]1[C@H](O[C@H]2[C@H](O)[C@@H](O)[C@H](O[C@@H]([C@H](O)[C@H](O)CO)[C@H](CO)NC(C)=O)O[C@@H]2C(=O)O)O[C@H](CO)[C@@H](O)[C@@H]1O[C@@H]1OC(C(=O)O)=C[C@H](O)[C@H]1O` [compound 5, 4-deoxy-α-L-threo-hexa-4-enepyranuronosyl-(1→3)-O-2-acetamide-2-deoxy-β-D-glucopyranosyl-(1→4)-3-O-β-D-glucopyranuronosyl-(1→3)-O-2-acetamide-2-deoxy-β-D-glucopyranitol], for which the “Sebum production inhibition (%)” value runs as follows: under setting [1], 16.2%; under setting [2], 18.1%.
The matching figures for `CC(=O)N[C@H]1[C@H](O[C@H]2[C@H](O)[C@@H](O)[C@H](O[C@@H]([C@H](O)[C@H](O)CO)[C@H](CO)NC(C)=O)O[C@@H]2C(=O)O)O[C@H](CO)[C@@H](O)[C@@H]1O[C@@H]1O[C@H](C(=O)O)[C@@H](O[C@@H]2O[C@H](CO)[C@@H](O)[C@H](O[C@@H]3OC(C(=O)O)=C[C@H](O)[C@H]3O)[C@H]2NC(C)=O)[C@H](O)[C@H]1O` [compound 6, 4-deoxy-α-L-threo-hexa-4-enepyranuronosyl-(1→3)-O-2-acetamide-2-deoxy-β-D-glucopyranosyl-(1→4)-3-O-β-D-glucopyranuronosyl-(13)-O-2-acetamide-2-deoxy-β-D-glucopyranosyl-(1→4)-3-O-β-D-glucopyranuronosyl-(1→3)-O-2-acetamide-2-deoxy-β-D-glucopyranitol]: 30.8% and 55.7%.
`CC(=O)N[C@H]1[C@H](O[C@H]2[C@H](O)[C@@H](O)[C@H](O)O[C@@H]2C(=O)O)O[C@H](CO)[C@@H](O)[C@@H]1O[C@@H]1OC(C(=O)O)=C[C@H](O)[C@H]1O` [compound 7, 4-deoxy-α-L-threo-hexa-4-enepyranuronosyl-(1-3)-O-2-acetamide-2-deoxy-β-D-glucopyranosyl-(1→4)-3-O-β-D-glucopyranuronic acid]: the “Sebum production inhibition (%)” value under setting [1] is listed as 14.2% and the “Sebum production inhibition (%)” value under setting [2] is reported as 15.9%.
For `CC(=O)N[C@H]1[C@H](O[C@H]2[C@H](O)[C@@H](O)[C@H](O)O[C@@H]2C(=O)O)O[C@H](CO)[C@@H](O)[C@@H]1O[C@@H]1O[C@H](C(=O)O)[C@@H](O[C@@H]2O[C@H](CO)[C@@H](O)[C@H](O[C@@H]3OC(C(=O)O)=C[C@H](O)[C@H]3O)[C@H]2NC(C)=O)[C@H](O)[C@H]1O` [compound 8, 4-deoxy-α-L-threo-hexa-4-enepyranuronosyl-(1-3)-O-2-acetamide-2-deoxy-β-D-glucopyranosyl-(1-4)-3-O-β-D-glucopyranuronosyl-(13)-O-2-acetamide-2-deoxy-β-D-glucopyranosyl-(1→4)-3-O-β-D-glucopyranuronic acid], the “Sebum production inhibition (%)” value reads like this: under setting [1], 30.7%; under setting [2], 56.6%.
The matching figures for `CC(=O)N[C@H]1[C@H](O[C@@H]([C@H](O)[C@@H](O)CO)[C@H](O)C(=O)O)O[C@H](CO)[C@@H](O)[C@@H]1O[C@@H]1OC(C(=O)O)=C[C@H](O)[C@H]1O` [compound 9, 4-deoxy-α-L-threo-hexa-4-enepyranuronosyl-(1→3)-O-2-acetamide-2-deoxy-β-D-glucopyranosyl-(1→4)-3-O-β-D-glucopyranuronitol]: 13.9% and 20.0%.
For the compound `CC(=O)N[C@H]1[C@H](O[C@@H]([C@H](O)[C@@H](O)CO)[C@H](O)C(=O)O)O[C@H](CO)[C@@H](O)[C@@H]1O[C@@H]1O[C@H](C(=O)O)[C@@H](O[C@@H]2O[C@H](CO)[C@@H](O)[C@H](O[C@@H]3OC(C(=O)O)=C[C@H](O)[C@H]3O)[C@H]2NC(C)=O)[C@H](O)[C@H]1O` [compound 10, 4-deoxy-α-L-threo-hexa-4-enepyranuronosyl-(1→3)-O-2-acetamide-2-deoxy-β-D-glucopyranosyl-(1→4)-3-O-β-D-glucopyranuronosyl-(1→3)-O-2-acetamide-2-deoxy-β-D-glucopyranosyl-(1→4)-3-O-β-D-glucopyranuronitol], the “Sebum production inhibition (%)” value is, setting by setting: under setting [1], 39.8%; under setting [2], 55.1%.

The values above are taken from US6894034B1, “Sebum production inhibitors” (Maruha Corporation, priority 1999, dated 2005).
